No end group written: not given here.
Columns and labels:
[1] = tested on: aggressive breast and prostate cancers; settings: cited from earlier work
From the text: (§1) ZD2 targeted MRI contrast agents have been developed and tested for MRMI of EDB-FN in aggressive breast cancer and prostate cancer models ([15], [16], [20]). The targeted contrast agent ZD2-N3-Gd(HP-DO3A) (MT218) was developed by conjugating ZD2 peptide to a clinical macrocyclic contrast agent Gd(HP-DO3A) ([16], [20]). […] The ...

[2] = cited from earlier work
From the text: as §1

[3] = Liver CNR in contrast-enhanced MRI; type: in vivo, nu/nu mice; settings: for liver CNR, MT218 vs Gd(HP-DO3A): 0.1 mmol/kg, p > 0.05
Experimental: (§2) Flank tumor-bearing mice were anesthetized and a tail vein catheter inserted. MR image acquisition was performed on a 7T Biospin (Bruker, Billerica, MA) preclinical small animal scanner with a volume radiofrequency coil. Axial images were obtained using a multi-spin multi-echo (MSME) MRI sequence (500 ms TR, 8.1 ms TE, 90° FA, 4.50 cm × 4.50 cm FOV, 1.50 mm slice thickness, 16 slices, 2 averages, 200 × 200 matrix, 0.0225 × 0.0225 cm/pixel resolution). Contrast agents were injected at a dose of 0.1 mmol/kg (100 μL) via the tail vein catheter, followed by a saline flush. Images of the tumors were acquired before contrast and at various time points after contrast administration. Gd(HP-DO3A) was used as a control.
Mice bearing intrapancreatic tumors were anesthetized and a tail vein catheter was inserted. Image acquisition was performed on a MR Solutions 3T MRS 3000 scanner with a mouse radiofrequency coil. Axial images were obtained using a Fast Spin Echo (FSE) MRI sequence (305 ms TR, 11 ms TE, 90° FA, 4 cm × 4 cm FOV, 1 mm slice thickness, 10 slices, echo train length = 4, echo spacing = 11 ms, 4 averages, 256 × 256 matrix, 0.0156 × […] cm/pixel resolution) with respiratory gating. Images were acquired before contrast and at different time points after contrast injection at a dose of 0.1 mmol/kg (100 μL). For competitive binding experiments, a 5:1 molar ratio of free ZD2 peptide to MT218 was injected in mice bearing intrapancreatic BxPC3 tumor xenografts (n = 3) at a dose of 0.1 mmol MT218/kg (100 μL). Images obtained on the MR Solutions 3T scanner were normalized using the Surscalereader.exe (MR Solutions, Guildford, UK) program supplied.
Image files were exported and analyzed in Horus software. ROIs were drawn in the tumor, liver, kidney, and muscle. […] The contrast-to-noise ratio of the tumor (CNR) was calculated using the following equation, where σnoise is the standard deviation of intensities from an ROI drawn outside of the mouse body:
The contrast to noise ratio of the liver (CNR) was calculated using the following equation: […]

[4] = Spleen CNR in contrast-enhanced MRI; type: in vivo, nu/nu mice; settings: BxPC3-GFP-Luc intrapancreatic model (n = 3), p > 0.05
Experimental: as §2
(§3) Mice bearing intrapancreatic tumors were anesthetized and a tail vein catheter was inserted. Image acquisition was performed on a MR Solutions 3T MRS 3000 scanner with a mouse radiofrequency coil. […]
(§4) Image files were exported and analyzed in Horus software. […] The contrast-to-noise ratio of the tumor (CNR) was calculated using the following equation, where σnoise is the standard deviation of intensities from an ROI drawn outside of the mouse body: […]

[5] = Kidney CNR in contrast-enhanced MRI; type: in vivo, nu/nu mice; settings: all tested mice, p > 0.05; BxPC3-GFP-Luc (n = 3) and PANC-1-GFP-Luc (n = 6) models
Experimental: as §2, §3, §4

[6] = T1 and T2 relaxivity measurement at 3T; type: physicochemical
Experimental: The T1 and T2 values of MT218 and Gd(HP-DO3A) solutions were determined using a 3T MRS 3000 scanner (MR Solutions, Guildford, UK). Solutions of MT218 were prepared at concentrations of 0, 0.25, 0.5, 1, and 2 mM in DPBS buffer (Gibco, Gaithersburg, MD). T1 values were measured using an inversion recovery-fast low angle shot (IR-FLASH) sequence (τ = 10 ms, TE = 4 ms, FA = 8°, echoes/frames = 128, FOV = 40 mm × 40 mm, slice thickness = 2 mm, number of averages = 1, time delay = 4,000 ms, sample period = 200, matrix = 256 × 128). T2 values were obtained using a multi-echo multi-slice (MEMS) sequence (TE = 15 ms, […], echoes = 10, FOV: 40 mm × 40 mm, slice thickness = 1 mm, number of averages = 1, matrix = 256 × 192). The r1 and r2 relaxivities were calculated from the slopes of 1/T1 and 1/T2 vs. Gd concentration plots, respectively.

ZD2-N3-Gd(HP-DO3A) (TVRTSAD; also: conjugated via N3 to Gd(HP-DO3A) contrast agent, end not given here) [MT218, small molecular conjugate of ZD2 peptide to a macrocyclic clinical MRI contrast agent Gd(HP-DO3A)]
contrast enhancement [1]: superior contrast enhancement | T1 relaxivity compared with Gd(HP-DO3A), in words [2]: higher T1 relaxivity than Gd(HP-DO3A) | liver CNR, MT218 vs Gd(HP-DO3A) ([3]; BxPC3-GFP-Luc and PANC-1-GFP-Luc intrapancreatic models): No difference in CNR | liver CNR, MT218 vs Gd(HP-DO3A) ([3]; Capan-1 flank model): No significant difference in CNR | non-specific signal enhancement in hepatic tissue ([3]; MRMI with MT218): Minimal non-specific signal enhancement | spleen CNR, MT218 vs Gd(HP-DO3A) [4]: No significant (n.s, p>0.05) difference in spleen CNR | kidney CNR, MT218 vs Gd(HP-DO3A) [5]: No significant (n.s, p>0.05) difference in kidney CNR | T1 relaxivity (r1) ([6]; 0-2 mM MT218 in DPBS buffer, IR-FLASH): 6.07 ± 1.13 s⁻¹ mM⁻¹ | T2 relaxivity (r2) ([6]; 0-2 mM MT218 in DPBS buffer, MEMS): 8.20 ± 0.18 s⁻¹ mM⁻¹ | T1 relaxivity relative to Gd(HP-DO3A) ([6]; targeted agent vs corresponding clinical agent): ~2 fold

— paper PMC7661967, “Magnetic Resonance Molecular Imaging of Extradomain B Fibronectin Improves Imaging of Pancreatic Cancer Tumor Xenografts” (Frontiers in Oncology, 2020)
